Measured values as given in article PMC12214158, “Structure–activity relationship of ^18F-labeled PD-L1-targeting small molecule ligands: impact of radiolabeling strategy on affinity and in vivo performance” (EJNMMI Radiopharmacy and Chemistry, 2025).

Tests used:
human PD-L1 = target: T1, human PD-L1 (Homo sapiens, UniProt Q9NZQ7); assay: Competition binding assay against [^64Cu]Cu-1 on PC3 PD-L1 overexpressing cells; conditions: against [^64Cu]Cu-1 (30 nM), 14 dilutions 1 µM–120 pM, n = 2 from triplicates, read-out: Ki (inhibitory constant from competition binding assay)
T1 construct: expressed in transfected cells; host or cells: PC3 cells (human prostate carcinoma) transduced to overexpress human PD-L1
Experimental: Prior to competition binding experiments, cells were detached with 0.05% Trypsin–EDTA (Gibco, USA), trypsinized and counted (CASY1 cell counter, Schaerfe System, Reutlingen, Germany). Cells were then diluted in medium to ~ 320,000 cells/mL and seeded to 48 well plates (Falcon Multiwell #353078, ThermoFisher, Karlsruhe, Germany) for at least one day.
For the determination of inhibitory constant (Ki), competition binding experiments were conducted in a minimum of two independent experiments, with each data point formed from triplicates. For this purpose, all described compounds competed with a previously reported biphenyl-based PD-L1 small molecule radioligand (Krutzek et al. [2023b]).
Human PD-L1 transduced PC3 cells were grown under conditions described above. For the experiments, plates were allowed to reach room temperature followed by cooling on ice (each 15 min). 200 µL of assay buffer (PBS) replaced the culture. For each compound, total binding (TB) of the radioligand was determined, along with […] of BMS-1166 (synthesized according to reference (Guzik et al. [2017]) (dissolved in DMSO, resulting in 0.03% v/v) for estimation of nonspecific binding (NSB).
Incubation for 90 min followed, wells were then washed with ice-cold assay buffer (3 washes) and cells subjected to lysis (500 µL of 0.1 M NaOH + 1% SDS). The radioactivity of 400 µL lysate was assessed via a gamma counter (Perkin Elmer Wizard 1480). Binding to polystyrene was determined on an extra plate without any cells under identical conditions. Activity and therefore concentration of the radioligand stock solution was confirmed via 50 µL samples. Data was corrected for radioactive decay to a reference time (end of radiolabeling). The protein content of lysates from a control plate (seeded from the same cell suspension, incubated under identical conditions) was quantified using a BCA assay, and the mean value (µg/mL) was employed for this specific dataset. Via mean protein content and molar activity, final values (pmol/mg protein) were computed from the CPM measurements. Ki was fitted via a One site model (GraphPad Prism 10), using the previously determined KD for the radiolabeled compound and the actual concentration of the radioligand.

[1] = Proteolytic stability in human serum, radio-HPLC; type: in vitro ADME; conditions: 37 °C, all time points up to 4 h
Experimental: With both ^18F-ligands in hand, distribution coefficients (log D7.4) were determined using the shake flask method with n-octanol and PBS. The introduction of three hydrophilizing units led to log D7.4 values of − 2.54 ± 0.02 for [^18F]F-2 and − 2.68 ± 0.08 for [^18F]F-3, which indicates moderate hydrophilicity. Subsequently, proteolytic stability was investigated (Supplementary Fig. S68 and S69), by incubating in human serum at 37 °C for up to 4 h. Before incubation (0 h) and 0.5, 1, 2 and 4 h after incubation, an aliquot was taken, and serum proteins were precipitated. Analysis of radiotracers was performed with radio-HPLC, showing the intact radiotracers (0 h) at 7.0 ([^18F]F-2) and 7.7 min ([^18F]F-3). At all time points, radiotracers remained intact up to 99%.
Subsequently, proteolytic stability was investigated (Supplementary Fig. S70 and S71), by incubating in human serum at 37 °C for up to 4 h. Before incubation (0 h) and 0.5, 1, 2 and 4 h after incubation, an aliquot was taken, and serum proteins were precipitated. Analysis of radiotracers was performed with radio-HPLC, showing the intact radiotracers (0 h) at 7.9 (Al[^18F]F-36) and 8.1 min (Al[^18F]F-37). After 4 h, both radiotracers remained intact up to 91% and 92%, respectively.
For proteolytic stability studies, a solution of the radiolabeled compound was diluted with human serum in a ratio of 1:10. […]

[2] = tested on: NMRI-nude mice bearing PC3 PD-L1 and PC3 mock tumors; assay: Small animal PET in mice bearing PC3 PD-L1 and PC3 mock tumors; type: in vivo; conditions: for SUVmax PC3 PD-L1 tumor / SUVmax PC3 mock tumor / Uptake (SUVmean) Bone (spine) / Uptake (SUVmean) Gall bladder / Uptake (SUVmean) Heart / Uptake (SUVmean) Liver / Uptake (SUVmean) PC3 PD-L1 tumor / Uptake (SUVmean) PC3 mock tumor / Uptake (SUVmean) Small intestine: 1–2 h p.i.; for Uptake (SUVmean) Bone (spine) / Uptake (SUVmean) Gall bladder / Uptake (SUVmean) Heart / Uptake (SUVmean) Liver / Uptake (SUVmean) PC3 PD-L1 tumor / Uptake (SUVmean) PC3 mock tumor / Uptake (SUVmean) Small intestine: mean; for transition from liver and gall bladder into the intestine: time-activity curves
Experimental: Male athymic NMRI-nude mice (Rj:NMRI-Foxn1nu, Charels River, Germany) aged 8 to 16 weeks were used to investigate pharmacokinetics and tumor uptake. For subcutaneous injection of cells, general anesthesia was induced with ~ 10% desflurane (Baxter, Deerfield, IL, USA) in 30 vol% oxygen + air at controlled 37 °C. Mice were injected with 3–5 × 10^6 PC3 PD-L1 and PC3 mock cells (in 50 µL PBS + 50 µL Matrigel, Corning, Glendale, CA, USA) into the right and left thigh, respectively. Tumor growth was monitored (3 times per week) using calipers, and animals enrolled in PET scans once tumors reached 7 mm.
Under general anesthesia, PET and X-ray computed tomography (CT) scans were conducted using a small animal PET/CT scanner (nanoScan PET/CT, Mediso, Budapest, Hungary), with four animals imaged simultaneously. CT images were used for attenuation correction and anatomical referencing.
The radiotracer candidates were diluted in 200–300 µL sterile 0.9% NaCl (and up to 2% EtOH, pH 6–7) and intravenously delivered over 30 s through a lateral tail vein catheter. PET acquisition (2 h p.i.) was started simultaneously with the administration. Injected activities were between 5 and 12 MBq (with molar activities 5–18 GBq/µmol). If animals were subjected to an additional scan later, the minimum time in between was > 3 days to allow decay and full metabolization.
The acquired three-dimensional list mode data were sorted and binned within a 400–600 keV energy window, forming 35 time frames (15 × 10 s, 5 × 30 s, 5 × 60 s, 4 × 300 s, 3 × 600 s, 3 × 1200 s). Reconstruction was performed with Mediso’s Tera-Tomo™ 3D algorithm, with a voxel size of 0.4 mm and corrections for decay, scatter, and attenuation. The images were subjected to post-processing and analysis using Rover software (ABX GmbH, Radeberg, Germany), and are shown as maximum intensity projections (MIPs) at the specified timepoint and scaling.
Three-dimensional volumes of interest were defined using fixed thresholding at 35–40% of the maximum measured intensity. Standardized uptake values (SUV = [MBq detected activity/mL tissue]/[MBq injected activity/g body weight], in mL/g) were then calculated within the selected volumes of interest, e.g. PD-L1 and mock tumors, as well as other relevant and metabolizing organs.

PC3 PD-L1 cells = target: T2, PC3 PD-L1 cells (Homo sapiens, UniProt Q9NZQ7); assay: Real-time radioligand binding (LigandTracer) to PC3 PD-L1 cells; conditions: room temperature
T2 construct: expressed in transfected cells; host or cells: PC3 cells (human prostate carcinoma) transduced to overexpress human PD-L1
Experimental: The LigandTracer system (Ridgeview Instruments AB, Uppsala, Sweden) allows assessing the binding kinetics (association rate constant ka and dissociation rate constant kd) and therefore dissociation constant (KD) of radiolabeled compounds. For that purpose, target-positive PC3 PD-L1 cells are seeded to a quadrant of a petri dish (Thermo Scientific Nunclon Delta #150350). In our initial tests, 1.2x10^6 cells were seeded one day prior to the experiment.
The petri dish is then placed in the instrument, the culture medium removed and replaced with 3 mL CO2-independent medium (Gibco #18045088, ThermoFisher Germany). In the LigandTracer system, the dish rotates on an inclined base, with cells in medium (3 mL) located on one side (target), while no cells (background) are located on the other side. Radioactivity (counts per second) is then constantly measured for 30 seconds on either side. This allows continuous measurements of two (or more) alternating parts of the dish for bound radioactivity, with target – background indicating binding over time.
All experiments were performed at room temperature. Association of compounds was observed following incubation with two increasing concentrations of the tracer. The tracer-containing solution was then exchanged for fresh medium, to allow observation of dissociation for at least 120 min.

T1 sequence (Q9NZQ7 19-290): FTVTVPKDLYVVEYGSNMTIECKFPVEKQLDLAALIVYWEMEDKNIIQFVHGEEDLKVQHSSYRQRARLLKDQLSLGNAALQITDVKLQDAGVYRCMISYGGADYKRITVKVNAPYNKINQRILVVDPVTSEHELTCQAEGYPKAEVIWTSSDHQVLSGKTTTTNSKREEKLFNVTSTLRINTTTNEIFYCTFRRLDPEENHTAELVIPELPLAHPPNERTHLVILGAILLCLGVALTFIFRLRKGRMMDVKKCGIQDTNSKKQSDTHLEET
T2 sequence (Q9NZQ7 19-290): as above

SMILES	Ki (human PD-L1) [nM]	radiotracer remaining intact [1]	bone uptake (sign of defluorination) [2]	excretion route [2]	target-specific tumor uptake, PC3 PD-L1 versus PC3 mock [2]	SUVmax PC3 PD-L1 tumor [2]	SUVmax PC3 mock tumor [2]	Uptake (SUVmean) Bone (spine) [2]	Uptake (SUVmean) Gall bladder [2]	Uptake (SUVmean) Heart [2]	Uptake (SUVmean) Liver [2]	Uptake (SUVmean) PC3 PD-L1 tumor [2]	Uptake (SUVmean) PC3 mock tumor [2]	Uptake (SUVmean) Small intestine [2]	transition from liver and gall bladder into the intestine [2] [min]	real-time radioligand binding, bound radioactivity over time (PC3 PD-L1 cells)
Cc1c(COc2cc(OCc3cncc(S(C)(=O)=O)c3)c(CN(C)C(=O)[C@H](CS(=O)(=O)O)NC(=O)[C@H](CS(=O)(=O)O)NC(=O)CCP(=O)(O)O)cc2Cl)cccc1-c1cccc(OCc2cn(CCOCCOCCF)nn2)c1C [Compound 3, (R)−3-((5-Chloro-4-((3'-((1-(2-(2-(2-fluoroethoxy)ethoxy)ethyl)−1H-1,2,3-triazol-4-yl)methoxy)−2,2'-dimethyl-[1,1'-biphenyl]−3-yl)methoxy)−2-((5-(methylsulfonyl)pyridin-3-yl)methoxy)benzyl)(methyl)amino)−3-oxo-2-((R)−2-(3-phosphonopropanamido)−3-sulfopropanamido)propane-1-sulfonic acid]	475	–	–	–	–	–	–	–	–	–	–	–	–	–	–	–
Cc1c(COc2cc(OCc3cncc(S(C)(=O)=O)c3)c(CN(C)C(=O)[C@H](CS(=O)(=O)O)NC(=O)[C@H](CS(=O)(=O)O)NC(=O)CCP(=O)(O)O)cc2Cl)cccc1-c1cccc(OCc2cn(CCOCCOCC[18F])nn2)c1C [[^18F]F-3]	475	up to 99%	lacked a discernible bone uptake	exclusively excreted via the hepatobiliary route	marked absence of target-specific uptake	0.30	0.34	0.13	150.54	0.20	0.70	0.17	0.17	105.54	10 to 15	almost no binding takes place and no
Cc1c(COc2cc(OCc3cncc(S(C)(=O)=O)c3)c(CN(C)C(=O)[C@H](CS(=O)(=O)O)NC(=O)[C@H](CS(=O)(=O)O)NC(=O)CCP(=O)(O)O)cc2Cl)cccc1-c1cccc(OCc2cn([C@@H]3O[C@H](CF)[C@@H](O)[C@H](O)[C@H]3O)nn2)c1C [Compound 2, (R)−3-((5-Chloro-4-((3'-((1-((2R,3R,4S,5S,6S)−6-(fluoromethyl)−3,4,5-trihydroxytetrahydro-2H-pyran-2-yl)−1H-1,2,3-triazol-4-yl)methoxy)−2,2'-dimethyl-[1,1'-biphenyl]−3-yl)methoxy)−2-((5-(methylsulfonyl)pyridin-3-yl)methoxy)benzyl)(methyl)amino)−3-oxo-2-((R)−2-(3-phosphonopropanamido)−3-sulfopropanamido)propane-1-sulfonic acid]	189	–	–	–	–	–	–	–	–	–	–	–	–	–	–	–
Cc1c(COc2cc(OCc3cncc(S(C)(=O)=O)c3)c(CN(C)C(=O)[C@H](CS(=O)(=O)O)NC(=O)[C@H](CS(=O)(=O)O)NC(=O)CCP(=O)(O)O)cc2Cl)cccc1-c1cccc(OCc2cn([C@@H]3O[C@H](C[18F])[C@@H](O)[C@H](O)[C@H]3O)nn2)c1C [[^18F]F-2]	189	up to 99%	lacked a discernible bone uptake	exclusively excreted via the hepatobiliary route	marked absence of target-specific uptake	0.66	0.77	0.25	46.45	0.86	1.61	0.34	0.39	114.55	10 to 15	–
